Data published in patent US12359169B2, “Universal CAR-T cell and preparation method and use thereof” (SHANGHAI LONGYAO BIOTECHNOLOGY INC., LTD., priority 2018, dated 2025).

Legend:
U-CAR-T cells = experiment: Regulation of U-CAR-T survival by ganciclovir in vitro; format: cell-based, human; settings: ganciclovir 0-3 μg/mL, 48 hours, anti-CD20 and anti-CD19 U-CAR-T, FIG. 4A
Method: The anti-CD20 U-CAR-T cells obtained in Example 1, anti-CD19 U-CAR-T cells (prepared according to the method in Example 1) and the control CAR-T (without knockout of CD3) were inoculated into 96-well plates, and the number of surviving CAR-Ts was compared after 48 hours by adding the indicated concentration of ganciclovir (0, 0.1 μg/mL, 0.3 μg/mL, 1 μg/mL, 3 μg/mL), and the results are shown in FIG. 4A.

CD3^−20uCAR-T cells = experiment: Regulation of U-CAR-T survival by ganciclovir in vivo (Raji xenograft); settings: NSG mice with Raji, FIG. 4C
Method: NSG mice (n=6/group) were injected intravenously with 5×10^5 Raji, which was followed by the administration of 1×10^7 CD3^−20uCAR-T cells on day 7 or two hundred micrograms of Ganciclovir were administered on day 7, 10 and 13. 7 days after the treatment, bone marrow, spleen and peripheral blood were collected for analysis of CAR-T cell (mCD45^−hCD45^+hCD3^+) persistence and Raji (mCD45^−hCD45^+hCD19^+) tumor cell burden (FIG. 4C). Statistical significance was determined by Mann-Whitney U test and presented by *P<0.05, **P<0.01, ***P<0.001; NS: Not Significant. Statistical significance was determined by unpaired t test. Statistical significance was presented by *P<0.05, ***P<0.001.

CD3 gene = experiment: sgRNA knockdown efficiency assay (transient transfection, flow detection with anti-TCR antibody); format: cell-based, human; settings: Jurkat cells, 0.6 μg pLenti-CrisprV2 plasmid, harvested at 48 h, FIG. 1F
Method: 2×10^5 Jurkat cells were transiently transfected with 0.6 μg pLenti-CrisprV2-hCD3E1/E2/D1/D2/Z1/Z2/G1/G2/G3 plasmids and cells were harvested at 48 h. Anti-TCR antibody was used for flow detection and untransfected plasmids were used as negative control.
The box in the figure represented the knockdown efficiency, where Z1 has the highest knockdown efficiency (about 81.2%).

Molecule | number of surviving CAR-Ts (survival of U-CAR-T) (U-CAR-T cells) | clearance of CD3− UCAR-T cells from organs (CD3^−20uCAR-T cells; 200 micrograms ganciclovir on day 7, 10 and 13, bone marrow, spleen, peripheral blood) | tumor load (CD3^−20uCAR-T cells; CD3− UCAR-T plus ganciclovir, compared to CD3+ CAR-T) | knockdown efficiency (CD3 gene)
Nc1nc(O)c2ncn(COC(CO)CO)c2n1 [ganciclovir] | can regulate the survival of U-CAR-T | effectively cleared | elevated tumor load | 
Z1: sgRNA for knockout of CD3 zeta, SEQ ID NO: 8, GTGGAAGGCGCTTTTCACCG (listed as DNA, chemistry not given here) |  |  |  | about 81.2%
